Entries after “also recorded” stand apart in the source; their conditions may differ. Values belong to the compound of their own block, whether it stands above or below them.
Assays:
[1] = system: iPSC-RPE; test: VEGF secretion ELISA under hypoxic conditions; assay type: cell-based, human; settings: for VEGF secretion, apical (Ap) / VEGF secretion, basal (Ba): hypoxic conditions (6h)
Description: Hypoxic stress (3% 02, 6h) was employed to determine how this perturbation regulates VEGF secretion in L-ORD patient iPSC-RPE.

[2] = system: iPSC-RPE; test: VEGF secretion ELISA under normoxia; assay type: cell-based, human; settings: L-ORD patients, metformin 3 mM for 1½ to 2 weeks
Description: Polarized secretion of cytokines by the RPE is a hallmark of their mature and differentiated state. Under conditions that promote epithelial to mesenchymal transition (EMT), RPE lose their morphology and their secretion becomes mispolarized. Dedifferentiation of the RPE is a frequently proposed mechanism in retinal degenerations such as AMD. Typically VEGF is primarily secreted basally by the RPE. In L-ORD patients, the polarity of VEGF secretion is lost as assessed by ELISA.

[3] = system: iPSC-RPE; test: Cell area of POS-fed iPSC-RPE (ZO-1 staining, REShAPE); assay type: cell-based, human
Description: Accumulating evidence implicates disrupted lipid metabolism as a common pathogenic mechanism in a host of diseases including AMD (Ban et al., 2018; Xu et al., 2018). These metabolic defects are linked to long term health of RPE cells. To determine the consequence of PEDF-R deficiency in RPE cells, L-ORD iPSC-RPE and unaffected siblings were subjected to 7-day photoreceptor outersegment (POS) feeding to exacerbate the high fat-induced epithelial impairment. Concomitantly, it was investigated whether the lipid-lowering effects of metformin, an anti-diabetic drug (Schneider et al., 1990), could reverse RPE dedifferentiation and loss of polarity. Cell size, a key morphological indicator of RPE polarity, was evaluated by staining for ZO-1 (green) to identify cell borders (FIG. 18a) and employing automated image analysis algorithms in REShAPE (a cloud-computing based cell morphometry analyzer) to perform morphometric analysis of RPE cells.
(§1) Patient iPSC-RPE were treated daily beginning with the first day of POS feeding with 3 mM metformin (Fan et al., 2015; Kim et al., 2011).

[4] = system: Stargardt iRPE; test: Ceramide levels in POS fed Stargardt iRPE; assay type: cell-based, human
[5] = system: patients with AMD; test: Retrospective cohort study of AMD patients concurrently using metformin; assay type: in vivo, human; settings: patients ages 50-59, with metformin (n=16); 56 without (n=157)
Description: To determine whether there is clinical evidence that metformin could be beneficial in the treatment of AMD, a retrospective cohort study of patients presenting to Kaiser Permanante Medical with AMD was performed to test whether concurrent use of metformin by individuals affected diagnosis.
To determine whether there is clinical evidence that metformin could be beneficial in the treatment of AMD a retrospective cohort study was performed of patients presenting to Kaiser Permanante Medical with AMD to test whether concurrent use of metformin by individuals affected diagnosis.

[6] = system: L-ORD patient iPSC-RPE; test: Expression of EMT-related genes in POS-fed L-ORD patient iPSC-RPE; assay type: cell-based, human
Description: POS feeding for 7-days also altered the expression profiles of 85 EMT-related genes in L-ORD patient iPSC-RPE (FIG. 18g).

[7] = system: AMPK; test: Phospho-AMPK ELISA in iPSC-RPE of L-ORD patients and unaffected siblings; assay type: cell-based, human; settings: L-ORD patient iPSC-RPE, 3 mM metformin, 1½-2 weeks
Description: Thus, in FIG. 16b iPSC-RPE were incubated with recombinant CTRP5 globular form (0.2 μg/mL gCTRP5) for 30 min in the presence (+) and absence (−) of serum to evaluate its role in AMPK signaling.
To better elucidate the ADIPOR1-CTRP5 (receptor-ligand) interaction, […] a ligand dose response curve was performed (in serum free media) by exogenously adding increasing concentrations of recombinant full length CTRP5 (FIG. 16c).
AMPK is a sensitive indicator of the cell energy status and is canonically activated by the levels of AMP or ATP (Hardie and Lin, 2017). Therefore, the AMPK activity (in serum free media) of sibling and patient iPSC-RPE under conditions (increased AMP:ATP ratio) known to stimulate AMPK phosphorylation was characterized (FIG. 16d). iPSC-RPE were incubated in serum deprived media for 5 hours (Park et al., 2009) followed by 30 mins exposure to AICAR (an AMP analogue) or BAM15 (a mitochondrial uncoupler to reduce ATP production).
(§2) Metformin treatment consisted of 3 mM metformin added to the apical and basal media for 1½- 2 weeks.

[8] = system: AMPK signaling pathway; test: Gene expression of AMPK signaling pathway in L-ORD patient RPE; assay type: cell-based, human; settings: metformin 3 mM for 1½ to 2 weeks
Description: Treatment with metformin (3 mM) for 1½ to 2 weeks results in further decrease in some genes but an upregulation in others. […] In the RPE, the PEDF-R plays an important role in fatty acid metabolism.

[9] = system: L-ORD patient RPE; test: Apical beta-hydroxybutyrate (B-hB) secretion by RPE; assay type: cell-based, human
Description: The inventors have hypothesized that increasing fatty acid oxidation and ketone body formation (B-hB) may lead to decreased lipid accumulation in the sub retinal space.
as §2

[10] = Mass-spectrometry analysis of metformin in eyes and plasma of treated animals; assay type: in vivo, mouse; settings: oral dosing, data not shown
[11] = system: iPSC-RPE; test: APOE deposition in POS-fed iPSC-RPE (integrated density); assay type: cell-based, human; settings: for integrated density of APOE signal, apical / integrated density of APOE signal, basal: 7-days POS feeding
Description: as §1
White arrow indicates basal increase in APOE deposits reminiscent of APOE-rich drusen deposits in AMD (Johnson et al., 2011). […] Image J was used to draw a rectangular region of interest around the apical and basal APOE-positive staining to quantify the localized mean integrated intensity and the data is summarized in FIG. 18d.

[12] = system: Abca4−/− mice; test: Abca4−/− mouse model, oral metformin, RPE/choroid flat-mount bodipy lipid stain
[13] = system: iRPE cells; test: Nile red staining of lipid deposits in CC-HS treated iRPE; assay type: cell-based, human; settings: co-treatment with CC-HS, vs CC-HS and vehicle
[14] = system: iRPE cells; test: Phagocytosis of photoreceptor outer segments by CC-HS treated iRPE; assay type: cell-based, human; settings: co-treatment with CC-HS
Description: Lastly, it was checked if the drugs rescued mature RPE phenotype and RPE functionality. TER of samples co-treated with drugs and CC-HS was 2-3× higher (p<10^−15) as compared to samples treated with vehicle+CC-HS was similar to TER values of CI-HS treated cells (FIG. 7G). Similarly, the addition of both drugs partially rescued (up to 2×; p<10^−15) the ability of the RPE cells to phagocytose photoreceptor outer segments, as compared to cells treated with CC-HS and the vehicle (FIG. 7H). […] The in vitro and in vivo data provides sufficient evidence to support the potential use of these drugs to delay AMD disease initiation and slow its progression.

[15] = system: iRPE cells; test: Proteotoxic high throughput screen (LOPAC) and follow up screen: survival of A23187 treated iRPE; assay type: cell-based, human; settings: for cytoprotective activity in follow up screen: seven-point dose curve, A23187 2.5, 5, 10 μM, two iRPE samples
Description: 10 μM concentration of A23187 was selected for the drug screening, because it provided a bigger margin for cell death rescue. […] Drug treatment along with the stressor, 10 μM A23187 were added on to iRPE cells matured in 384-well plates and cell death was scored 48 hours later by ATP release using the CellTitrGlo assay.
To distinguish false positives from the real signal, a follow up screen on all of the 45 drugs using iRPE derived from two different iPSC lines was performed. The follow up screen was performed at three different A23187 concentrations (2.5, 5, 10 μM) and with seven different concentrations of drugs ranging from 10 nM-1 mM (FIG. 13D-F). […] Overall, the HTS screen provided two drugs for testing in the in vitro AMD model.

[16] = system: FIBULIN 3; test: FIBULIN 3 expression in CC-HS treated iRPE; assay type: cell-based, human; settings: co-treatment with CC-HS, vs CC-HS and vehicle
[17] = system: ATG5; test: ATG5 immunostaining in CC-HS treated iRPE; assay type: cell-based, human; settings: co-treatment with CC-HS
[18] = system: CC-HS treated iRPE cells; test: RNAseq of iRPE co-treated with CC-HS and drugs; assay type: cell-based, human; settings: listed as L, 745,870
Description: The key hallmark of AMD cellular phenotypes seen in cadaver eyes and observed in the in vitro model are the sub-RPE lipid and protein rich deposits, increased expression of drusen markers, and the loss of epithelial phenotype and RPE functionality. […] Similar results were obtained by RNAseq of iRPE treated with just CC-HS plus the vehicle or co-treated with CC-HS and the two drugs. Both drugs were able to suppress (4-10 fold) the expression of dedifferentiation markers in CC-HS treated iRPE cells (FIG. 13H).

[19] = system: iRPE cells; test: Cell area and hexagonality of CC-HS treated iRPE; assay type: cell-based, human; settings: co-treatment with CC-HS
[20] = system: rat RPE; test: Rat model of RPE dedifferentiation (micropulse laser lesion, sub-retinal injection); assay type: in vivo
Description: To test the in vivo activity of these drugs, a rat model of RPE dedifferentiation was developed. A 0.5 mm area of rat RPE was damaged using a micropulse laser. RPE cells in the lasered area are ablated causing the cells surrounding the laser lesion to undergo dedifferentiation due to the loss of cell-cell contacts. […] Effects of drugs on rat RPE dedifferentiation was tested by injecting either of the two drugs in the sub-retinal space of the rat eye at the time of laser injury.

[21] = system: iRPE monolayer; test: Transepithelial resistance (TER) of CC-HS treated iRPE monolayer; assay type: cell-based, human; settings: co-treatment with CC-HS
[22] = L-ORD patient RPE, prior metformin 2 weeks
[23] = untreated or metformin treated unaffected siblings
[24] = metformin treated L-ORD patients
[25] = metformin treated unaffected siblings

- amount of metformin in RPE/choroid, retina, and plasma [10]: comparable amount
- hypoglycemia in treated mice ([12]; oral metformin 400 or 800 mg/day): do not lead to hypoglycemia
Compound: CN(C)C(=N)N=C(N)N [metformin]
- hypoxia-induced apical VEGF secretion ([1]; 1½ week pretreatment with metformin): alleviated the hypoxia-induced apical VEGF secretion
- VEGF secretion, apical (Ap) [1, 22]: 0.59±0.09
- VEGF secretion, basal (Ba) [1, 22]: 1.8±0.24
- VEGF secretion, apical (Ap) [1, 23]: 0.98±0.16
- VEGF secretion, basal (Ba) [1, 23]: 1.64±0.33
- rescue of mispolarized VEGF secretion ([1]; hypoxic stress (3% O2, 6h), metformin for 24h, data not shown): insufficient to rescue this phenotype
- polarized VEGF secretion [2]: rescue of polarized VEGF secretion
- polarized VEGF secretion ([2]; listed as Metformin): rescues mispolarized secretion of VEGF
- POS stress-induced enlargement of patient iPSC-RPE ([3]; 3 mM metformin daily from first day of POS feeding): largely prevented the POS stress-induced enlargement
- cell area ([3]; L-ORD patient iPSC-RPE, 3 mM metformin during 7 days POS feeding): 117.92±0.96 um
- cell area ([3]; unaffected siblings, metformin during 7 days POS feeding): 93.14±1.56 um
- reduction of ceramide levels vs vehicle ([4]; 3 mM metformin, wild type POS for 6 consecutive days): 3-4 fold
- ceramide accumulation ([4]; POS-Fed Stargardt iRPE treated with metformin): dramatic reduction
- age of onset of nonexudative age-related macular degeneration [5]: 58.5 years of age
- number of EMT genes downregulated ([6]; L-ORD patient iPSC-RPE treated with metformin, <4-fold as printed): 42 genes
- expression of EMT related genes ([6]; metformin during 7-days POS feeding): suppresses the expression of EMT related genes
- sensitivity of p-AMPK to changes in the AMP:ATP ratio / AICAR [7]: restored sensitivity to AICAR; also recorded: regained sensitivity to AICAR; also recorded: restores the sensitivity
- PNPLA2 (PEDF-R) expression [8]: significant increase
- increase in apical B-hB secretion ([9]; L-ORD patient RPE, 3 mM metformin 1½-2 weeks): 25%
- beta-hydroxybutyrate apical secretion ([9]; metformin treatment): increased beta-hydroxybutyrate apical secretion
- apical and basal APOE deposition ([11]; L-ORD patient RPE treated with metformin during POS feeding): ameliorate the accumulation of APOE-containing basal deposits; also recorded: redistribution of the relative proportions of apical and basal APOE deposition
- integrated density of APOE signal, apical [11, 24]: 79.30±37.51
- integrated density of APOE signal, basal [11, 24]: 13.58±4.58
- integrated density of APOE signal, apical [11, 25]: 119.98±20.36
- integrated density of APOE signal, basal [11, 25]: 23.55±6.17
- lipid levels / deposits in RPE/choroid flat-mount ([12]; oral metformin 400 or 800 mg/day for three months): drastically reduced lipid levels; also recorded: reduced deposits

Compound: Clc1ccc(N2CCN(Cc3c[nH]c4ncccc34)CC2)cc1 [L-745,870]
- amount of Nile red positive lipid droplets [13]: reduced
- phagocytic ability [14]: increased
- IC50 ([15]; cell survival of A23187 treated iRPE, read-out: IC50 dose from seven-point dose response curve): 6 µM
- cytoprotective activity in follow up screen [15]: reproducible cell survival; also recorded: linear response the seven-point dose curve and reproducibility between two different iRPE samples
- cytoprotective activity in follow up screen ([15]; listed as L, 745,870): reproducible cytoprotective activity
- expression of FIBULIN 3 [16]: reduced
- expression of FIBULIN 3 ([16]; listed as L745,870): four-fold lower
- reduced expression of autophagy protein, ATG5 [17]: does not lead to
- gene expression changes induced by CC-HS treatment [18]: reversed gene expression changes induced by CC-HS treatment; also recorded: reversal of the upregulation of NF-KB pathway genes
- average cell area [19]: 162.24 um2
- cell area of CC-HS treated iRPE cells [19]: reduced area
- hexagonality of CC-HS treated iRPE cells [19]: improved hexagonality
- hexagonality score ([19]; 10 represents a perfect hexagon): 8.25
- area of RPE cells at the borders of laser lesion in rat eyes [20]: reduced area
- hexagonality of RPE cells at the borders of laser lesion in rat eyes [20]: improved hexagonality
- area of RPE cells around the laser lesion ([20]; sub-retinal injection at the time of laser injury): 439.55 um2
- monolayer TER [21]: increased monolayer TER
